{
  "source": "patent US4183931A",
  "about": "“2-Ketoalkyl-4(3H)-quinazolinones” (Research Corporation, priority 1977, dated 1980)",
  "key": {"[1]": {"experiment": "Neuropharmacological Profile (NPP): general CNS observational screen (depression, righting reflex, ataxia)"}, "[2]": {"experiment": "NPP lethality (estimated LD50)", "conditions": "mouse, in vivo, ip"}, "[3]": {"experiment": "NINCDS Maximal Electroshock Seizure Test (MES)", "format": "in vivo, mice", "conditions": "for minimal effective dose: read-out: MES: dosage level that elicited protection", "method": "1. Neurological Activity Tests. […] Compounds were evaluated for anticonvulsant activity in two seizure models, the maximal electroshock seizure (MES) test and the subcutaneous pentylenetetrazol (Metrazol) seizure threshold (scMet) test.\nThe Maximal Electroshock Seizure Test was performed according to the method described by Swinyard and coworkers,* wherein a drop of 0.9% saline is instilled in each eye prior to application of corneal electrodes. Seizures are elicited with a 50 Hz alternating current of 50 mA (5 to 7 times that necessary to elicit minimal electroshock seizures) delivered for 0.2 sec via corneal electrodes. This stimulus will produce a maximal seizure in all normal mice. The maximal seizure typically consists of a short period of initial tonic flexion and a prolonged period of hind limb tonic extension, followed by terminal clonus. The seizure lasts about 22 seconds. Abolition of the hind limb tonic extensor component of the seizure is defined as protection and indicates anticonvulsant activity in the test compound.\nThe ability of a compound to prevent maximal electroshock seizures is believed to correlate with its ability to prevent the spread of seizure discharge through neural tissue. Activity against maximal electroshock seizures is thought to indicate potential efficacy in the treatment of major motor (grand mal) seizures. […] Selective action in the test is believed to indicate potential efficacy against absence (petit mal) seizures.\nAs described earlier, the MES, scMet and Rotorod tests were performed one-half hour and four hours after administration of each compound.\nIn the Secondary Evaluation, median effective doses (ED50) are determined in the MES, scMet and Rotorod assays using the procedures defined in Pharmacology, 95, 99-113 (1949).\nSeparate groups of animals are used for each time period. The times of peak toxic and anticonvulsant effect are taken from the resulting graph of percent of animals responding vs. time, and the determinations of median effective doses are performed at those times."}, "[4]": {"experiment": "NINCDS Subcutaneous Pentylenetetrazol (Metrazol) Seizure Threshold Test (scMet)", "format": "in vivo, mice", "conditions": "for minimal effective dose: sc, read-out: scMet: dosage level that elicited protection"}, "[5]": {"conditions": "at 100 mg/kg, i.p., mice, score 0-8"}, "[6]": {"conditions": "Mus musculus, ip, secondary evaluation, at time of peak effect"}},
  "data": [
    {"smiles": "O=C(Cc1nc2ccccc2c(=O)n1-c1ccccc1Cl)c1ccncc1", "note": "[IVd, 2-[2-Oxo-2-(4-pyridyl)ethyl]-3-o-chlorophenyl-4(3H)-quinazolinone]", "values": [
      {"measurement": "behavioral activity compared with methaqualone", "setting": "[1]; NPP summary", "result": "approaches that of methaqualone"},
      {"measurement": "Depression", "setting": "[1]; at 10 mg/kg, i.p., mice, score 0-8", "result": 2},
      {"measurement": "CNS Depression", "setting": "[1]; at 30 mg/kg (value in parentheses), i.p., mice, score 0-8", "result": 2},
      {"measurement": "Ataxia", "setting": "[1]; [5]", "result": 6},
      {"measurement": "CNS Depression", "setting": "[1]; [5]", "result": 6},
      {"measurement": "Righting reflex", "setting": "[1]; [5]", "result": 8},
      {"measurement": "LD50 at 48 h", "setting": "[2]", "result": 237, "unit": "mg/kg"},
      {"measurement": "minimal effective dose", "setting": "[3]; Mus musculus, ip, after 0.5 hr", "result": 300, "unit": "mg/kg"},
      {"measurement": "minimal effective dose", "setting": "[3]; Mus musculus, ip, after 4 hr (value in parentheses)", "result": 100, "unit": "mg/kg"},
      {"measurement": "ED50", "setting": "[3]; [6]", "result": 33.5, "unit": "mg/kg"},
      {"measurement": "MES protective index compared with methaqualone", "setting": "[3]; secondary evaluation", "result": "approximately four-fold higher"},
      {"measurement": "PI MES (Protective Index = TD50/ED50)", "setting": "[3]; secondary evaluation", "result": 4.08},
      {"measurement": "potency against electroshock-induced (MES) seizures compared with methaqualone", "setting": "[3]; secondary evaluation", "result": "more potent"},
      {"measurement": "MES protective index compared with commercial agents", "setting": "[3]; vs Ethotoin, Mephenytoin, Phenobarbital, Metharbital, Trimethadione, Paramethadione, Methsuximide, Phensuximide, Diazepam, Clonazepam", "result": "higher MES protective index"},
      {"measurement": "ED50", "setting": "[4]; [6]", "result": 30.8, "unit": "mg/kg"},
      {"measurement": "minimal effective dose", "setting": "[4]; Mus musculus, after 0.5 hr", "result": 30, "unit": "mg/kg"},
      {"measurement": "minimal effective dose", "setting": "[4]; Mus musculus, after 4 hr (value in parentheses)", "result": 100, "unit": "mg/kg"},
      {"measurement": "PI scMet (Protective Index = TD50/ED50)", "setting": "[4]; secondary evaluation", "result": 4.44},
      {"measurement": "potency against scMet seizures compared with methaqualone", "setting": "[4]; secondary evaluation", "result": "more potent"},
      {"measurement": "scMet protective index compared with Ethosuximide", "setting": "[4]; secondary evaluation", "result": "higher scMet protective index than Ethosuximide"},
      {"measurement": "scMet protective index compared with methaqualone", "setting": "[4]; secondary evaluation", "result": "approximately four-fold higher"},
      {"measurement": "scMet ED50 compared with commercial petit mal agents", "setting": "[4]; vs Ethotoin, Trimethadione, Paramethadione, Ethosuximide, Methsuximide, Phensuximide, Phenacamide (data of DHEW Publication No. (NIH) 76-1093)", "result": "lower ED50 in the scMet screen than the commercially available petit mal agents"}
    ]}
  ]
}
